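Step 1: Grow cells in 96-well plates. Step 2: Expose to compound for 48 hours at 5 concentrations. Step 3: Interpolate endpoints linearly; if unreached, use highest concentration. GI50 = concentration required for 50% inhibition of growth.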 Activity calls are given as the source filed them. No stated cut-off is given here; in the data, active = GI50 up to about 1.1 µM and inactive = higher.
Key:
Assay in all cases: NCI tumour cell line growth inhibition, 48 h
SR = system: SR
IGROV-1 = system: IGROV-1
UACC-62 = system: UACC-62
PC-3 = system: PC-3
NCI/ADR-RES = system: NCI/ADR-RES
HOP-92 = system: HOP-92
SK-MEL-2 = system: SK-MEL-2
MCF7 = system: MCF7
UACC-257 = system: UACC-257
SK-MEL-28 = system: SK-MEL-28
RPMI-8226 = system: RPMI-8226
NCI-H522 = system: NCI-H522
OVCAR-5 = system: OVCAR-5
U-251 = system: U-251
HL-60 = system: HL-60
Malme-3M = system: Malme-3M
CAKI-1 = system: CAKI-1
MDA-N = system: MDA-N
EKVX = system: EKVX
OVCAR-8 = system: OVCAR-8
K562 = system: K562
HT-29 = system: HT-29
M14 = system: M14
NCI-H226 = system: NCI-H226
DU-145 = system: DU-145
A549 = system: A549
NCI-H460 = system: NCI-H460
A498 = system: A498
ACHN = system: ACHN
SF-539 = system: SF-539
BT-549 = system: BT-549
SF-295 = system: SF-295
MOLT-4 = system: MOLT-4
786-0 = system: 786-0
OVCAR-3 = system: OVCAR-3
OVCAR-4 = system: OVCAR-4
SNB-19 = system: SNB-19
UO-31 = system: UO-31
SW-620 = system: SW-620
MDA-MB-435 = system: MDA-MB-435
NCI-H23 = system: NCI-H23
SNB-75 = system: SNB-75
HCT-116 = system: HCT-116
COLO 205 = system: COLO 205
HCC 2998 = system: HCC 2998
MDA-MB-231 = system: MDA-MB-231
HCT-15 = system: HCT-15
SK-MEL-5 = system: SK-MEL-5
TK-10 = system: TK-10
HOP-62 = system: HOP-62
RXF 393 = system: RXF 393
SK-OV-3 = system: SK-OV-3
KM12 = system: KM12
CCRF-CEM = system: CCRF-CEM
T47D = system: T47D
LOX IMVI = system: LOX IMVI
SN12C = system: SN12C
SF-268 = system: SF-268
Hs-578T = system: Hs-578T

Measured: GI50

C/C(=C/c1ccccc1)CN(C(=O)/C=C\Sc1ccccc1)C(C)(C)C
inactive: SR 19.6 µM | IGROV-1 > 100 µM | UACC-62 > 100 µM | PC-3 > 68.7 µM | NCI/ADR-RES > 34.6 µM | HOP-92 4.85 µM | SK-MEL-2 > 75.9 µM | MCF7 65.2 µM | UACC-257 48.3 µM | SK-MEL-28 > 100 µM | RPMI-8226 21.2 µM | NCI-H522 10.1 µM | OVCAR-5 > 100 µM | U-251 > 84.9 µM | HL-60 28 µM | Malme-3M > 100 µM | CAKI-1 > 100 µM | MDA-N > 100 µM | EKVX > 70 µM | OVCAR-8 > 83.8 µM | K562 27.2 µM | HT-29 36.4 µM | M14 > 100 µM | NCI-H226 > 94.4 µM | DU-145 > 100 µM | A549 60.1 µM | NCI-H460 > 100 µM | A498 > 100 µM | ACHN > 100 µM | SF-539 > 91.2 µM | BT-549 > 43.7 µM | SF-295 > 100 µM | MOLT-4 3.87 µM | 786-0 > 100 µM | OVCAR-3 > 75.3 µM | OVCAR-4 > 87.5 µM | SNB-19 > 100 µM | UO-31 > 52 µM | SW-620 > 100 µM | MDA-MB-435 > 100 µM | NCI-H23 > 48 µM | SNB-75 > 100 µM | HCT-116 24.8 µM | COLO 205 > 100 µM | HCC 2998 45.4 µM | MDA-MB-231 > 100 µM | SK-MEL-5 60.8 µM | TK-10 > 100 µM | HOP-62 > 100 µM | RXF 393 > 100 µM | SK-OV-3 > 100 µM | KM12 > 100 µM | CCRF-CEM 63.1 µM | T47D > 31.2 µM | LOX IMVI > 66.4 µM | SN12C > 100 µM
37.2 µM: HCT-15

COc1cc(/C=N/Nc2nnc3c4ccccc4c4ncccc4c3n2)cc(OC)c1OC
inactive: SR 3.37 µM | SF-268 6.58 µM | UACC-257 1.97 µM | NCI-H522 2.47 µM | OVCAR-5 5.13 µM | U-251 4.21 µM | HL-60 3.62 µM | MDA-N 1.61 µM | EKVX 9.82 µM | OVCAR-8 2.23 µM | K562 3.17 µM | HT-29 2.02 µM | M14 8.51 µM | NCI-H226 3.01 µM | DU-145 3.31 µM | A549 2.79 µM | ACHN 5.85 µM | SF-539 3.71 µM | BT-549 6.22 µM | SF-295 3.49 µM | MOLT-4 2.9 µM | 786-0 5.83 µM | OVCAR-3 3.53 µM | OVCAR-4 6.46 µM | SNB-19 6.71 µM | UO-31 3.39 µM | MDA-MB-435 5.12 µM | NCI-H23 2.57 µM | SNB-75 3.82 µM | Hs-578T 4.74 µM | SK-MEL-5 4.31 µM | TK-10 4.28 µM | RXF 393 4.72 µM | KM12 9.29 µM | CCRF-CEM 2.63 µM | T47D 1.21 µM
active: IGROV-1 1.04 µM | NCI-H460 0.728 µM

CC(C)(C)[Si](C)(C)OCC#C[C@@]1(O)CCCCC1CC(Sc1ccccc1)Sc1ccccc1 (stereo partly specified)
14.9 µM: HCT-15
inactive: SR 14.8 µM | IGROV-1 16.1 µM | UACC-62 12.9 µM | PC-3 13.5 µM | NCI/ADR-RES 15 µM | HOP-92 15.6 µM | SK-MEL-2 15.8 µM | MCF7 10.2 µM | UACC-257 15.5 µM | SK-MEL-28 16.3 µM | RPMI-8226 15.3 µM | NCI-H522 11.4 µM | OVCAR-5 14.2 µM | U-251 13.3 µM | HL-60 18.8 µM | Malme-3M 16.1 µM | CAKI-1 10.7 µM | MDA-N 18.2 µM | EKVX 16.4 µM | OVCAR-8 16.5 µM | K562 14.2 µM | HT-29 14 µM | M14 18.2 µM | NCI-H226 15.3 µM | DU-145 15.8 µM | A549 14.9 µM | NCI-H460 15.2 µM | A498 16.3 µM | ACHN 14.4 µM | BT-549 19 µM | SF-295 14.7 µM | MOLT-4 11.6 µM | 786-0 13.5 µM | OVCAR-3 12.9 µM | OVCAR-4 13.9 µM | SNB-19 15.4 µM | UO-31 13.9 µM | SW-620 15.1 µM | MDA-MB-435 15.7 µM | NCI-H23 14.9 µM | SNB-75 14.8 µM | HCT-116 11.8 µM | COLO 205 16.3 µM | HCC 2998 15.6 µM | MDA-MB-231 16.9 µM | SK-MEL-5 15.7 µM | TK-10 17.9 µM | HOP-62 16.9 µM | RXF 393 12.5 µM | SK-OV-3 15.7 µM | KM12 21.9 µM | CCRF-CEM 11.8 µM | T47D 10.7 µM | LOX IMVI 17.3 µM | SN12C 11.6 µM

From ChEMBL document CHEMBL1201862, “PubChem BioAssay data set” (2004)
